The text below walks through data of US20260200939A1, “MOLECULAR GLUE DEGRADER COMPOUNDS AND USES THEREOF” (Novartis AG, priority 2022, published 2026).

The target of assay [1] is T1, Recombinant RNF126 (Homo sapiens, UniProt Q9BV68).
T1 construct: FLAG (C); host or cells: HEK293T
In words: RNF126 Binding Assay, gel-based ABPP. Put shortly: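 FLAG-tagged human RNF126, expressed in HEK293T and purified on anti-FLAG resin, was pretreated with DMSO or covalent ligand for 30 min at 37 °C in PBS. IA-rhodamine was then added for 1 h at RT in the dark. Probe labelling was read by SDS-PAGE in-gel fluorescence.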

Assay [2] concerns the target T2, BCR-ABL (Homo sapiens, UniProt P00519).
T2 construct: BCR (N-terminal part of P11274, natural fusion partner); endogenous in cells; host or cells: K562 (inferred); the other entry of the earlier key: BCR (P11274, Breakpoint cluster region protein)
Briefly: BCR-ABL degradation, Western blotting. It counts as cell-based. The method, then: (§1) C33A cells were purchased from American Type Culture Collection (ATCC) and were cultured in Dulbecco's Modified Eagle Medium (DMEM) containing 10% (v/v) fetal bovine serum (FBS) and maintained at 37° C. with 5% CO2. 22RV1 cells were purchased from the ATCC and were cultured in RPMI-1640 Medium containing 10% (v/v) FBS and maintained at 37° C. with 5% CO2. HEK293T cells were obtained from the UC Berkeley Cell Culture Facility and were cultured in DMEM containing 10% (v/v) FBS and maintained at 37° C. with 5% CO2. K562 cells were obtained from the UC Berkeley Cell Culture Facility and were cultured in Iscove's Modified Dulbecco's Medium (IMDM) containing 10% (v/v) FBS and maintained at 37° C. with 5% CO2. MV-4-11 cells were obtained from the ATCC and were cultured in IMDM containing 10% (v/v) FBS and maintained at 37° C. with 5% CO2. A549 cells were obtained from the ATCC and were cultured in F-12K Medium containing 10% (v/v) FBS and maintained at 37° C. with 5% CO2. Mino cells were obtained from the ATCC and were cultured in RPMI-1640 Medium containing 10% (v/v) FBS and maintained at 37° C. with 5% CO2. […]
(§2) Cells were washed twice with cold PBS, scraped, and pelleted by centrifugation (700 g, 5 min, 4° C.). […] Proteome concentrations were determined using BCA assay and lysate was diluted to appropriate working concentrations. […]
A general note: Immunoblotting shows a protein as a band on a membrane.

Assay [3] concerns the target T3, c-ABL kinase (Homo sapiens, UniProt P00519).
T3 construct: endogenous in cells; host or cells: K562 (inferred)
Briefly: c-ABL degradation, Western blotting. The assay is classed as cell-based. The method, then:
as §1, §2

Assay [4] deals with T4, PDE5 (Homo sapiens, UniProt O76074).
T4 construct: endogenous in cells; host or cells: HEK293T
In words: PDE5 degradation in HEK293T cells, Western blotting. The assay is classed as cell-based. The method, then:
as §1, §2

Assay [5] deals with T5, LRRK2 (Homo sapiens, UniProt Q5S007).
T5 construct: endogenous in cells; host or cells: A549
Briefly: LRRK2 loss in A549 lung cancer cells, Western blotting. The assay is classed as cell-based. The method, then:
as §1, §2

In assay [6] the target is T6, BRD4 long (Homo sapiens, UniProt O60885).
T6 construct: endogenous in cells; host or cells: HEK293T
Briefly: BRD4 (long) degradation assay, Western blotting. The assay is classed as cell-based. As to conditions: HEK293T cells. The method, boiled down:
(§3)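 Cell lines were grown at 37° C with 5% CO2 (HEK293T and C33A in DMEM, A549 in F-12K, 22RV1, LNCaP and Mino in RPMI-1640, K562 and MV-4-11 in IMDM, all with 10% FBS). Lysates were BCA-normalized, then SDS/PAGE Western blots were probed with target-specific antibodies and read by IR680/IR800 fluorescent secondaries on Li-Cor.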

In assay [7] the target is T7, BRD4 short (Homo sapiens, UniProt O60885).
T7 construct: endogenous in cells; host or cells: HEK293T
Briefly: BRD4 (short) degradation assay, Western blotting. It counts as cell-based. As to conditions: HEK293T cells. Put shortly: as §3

For assay [8], the system named is HEK293T cells. In words: Quantitative TMT proteomic profiling in HEK293T cells. The assay is classed as cell-based. The method, then: Cells were treated with either DMSO vehicle or compound (Compound 130, 1 μM) for 24 h and lysate was prepared as described above. Briefly, 25-100 μg protein from each sample was reduced, alkylated and tryptically digested overnight. Individual samples were then labeled with isobaric tags using commercially available TMTsixplex (Thermo Fisher Scientific, P/N 90061) kits, in accordance with the manufacturer's protocols. Tagged samples (20 μg per sample) were combined, dried with SpeedVac, resuspended with 300 μL 0.1% TFA in H2O, and fractionated using high pH reversed-phase peptide fractionation kits (Thermo Scientific, P/N 84868) according to manufacturer's protocol. Fractions were dried with SpeedVac, resuspended with 50 μL 0.1% FA in H2O, and analyzed by LC-MS/MS as described below.
Quantitative TMT-based proteomic analysis was performed as previously described using a Thermo Eclipse with FAIMS LC-MS/MS (King, E. A. et al. Chemoproteomics-Enabled Discovery of a Covalent Molecular Glue Degrader Targeting NF-κB. 2022.05.18.492542 Preprint at https://doi.org/10.1101/2022.05.18.492542 (2022)). […] Only peptide-to-spectrum matches that are unique assignments to a given identified protein within the total dataset are considered for protein quantitation. […]

Assay [9] has as its target T8, BTK (Homo sapiens, UniProt Q06187).
T8 construct: endogenous in cells; host or cells: Mino
In words: BTK degradation in MINO lymphoma cancer cells, Western blotting. The assay is classed as cell-based. The method, then: as §1, §2

T1 sequence (Q9BV68 whole entry): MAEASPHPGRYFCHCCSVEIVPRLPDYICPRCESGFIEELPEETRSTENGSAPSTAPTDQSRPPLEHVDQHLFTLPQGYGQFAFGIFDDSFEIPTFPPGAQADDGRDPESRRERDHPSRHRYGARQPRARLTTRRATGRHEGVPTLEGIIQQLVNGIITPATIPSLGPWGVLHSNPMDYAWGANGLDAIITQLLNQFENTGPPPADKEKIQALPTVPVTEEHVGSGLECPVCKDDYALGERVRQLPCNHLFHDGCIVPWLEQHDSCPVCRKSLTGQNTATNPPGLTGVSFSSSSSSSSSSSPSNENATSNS
T2 sequence (P00519 with tags, fused parts or gaps): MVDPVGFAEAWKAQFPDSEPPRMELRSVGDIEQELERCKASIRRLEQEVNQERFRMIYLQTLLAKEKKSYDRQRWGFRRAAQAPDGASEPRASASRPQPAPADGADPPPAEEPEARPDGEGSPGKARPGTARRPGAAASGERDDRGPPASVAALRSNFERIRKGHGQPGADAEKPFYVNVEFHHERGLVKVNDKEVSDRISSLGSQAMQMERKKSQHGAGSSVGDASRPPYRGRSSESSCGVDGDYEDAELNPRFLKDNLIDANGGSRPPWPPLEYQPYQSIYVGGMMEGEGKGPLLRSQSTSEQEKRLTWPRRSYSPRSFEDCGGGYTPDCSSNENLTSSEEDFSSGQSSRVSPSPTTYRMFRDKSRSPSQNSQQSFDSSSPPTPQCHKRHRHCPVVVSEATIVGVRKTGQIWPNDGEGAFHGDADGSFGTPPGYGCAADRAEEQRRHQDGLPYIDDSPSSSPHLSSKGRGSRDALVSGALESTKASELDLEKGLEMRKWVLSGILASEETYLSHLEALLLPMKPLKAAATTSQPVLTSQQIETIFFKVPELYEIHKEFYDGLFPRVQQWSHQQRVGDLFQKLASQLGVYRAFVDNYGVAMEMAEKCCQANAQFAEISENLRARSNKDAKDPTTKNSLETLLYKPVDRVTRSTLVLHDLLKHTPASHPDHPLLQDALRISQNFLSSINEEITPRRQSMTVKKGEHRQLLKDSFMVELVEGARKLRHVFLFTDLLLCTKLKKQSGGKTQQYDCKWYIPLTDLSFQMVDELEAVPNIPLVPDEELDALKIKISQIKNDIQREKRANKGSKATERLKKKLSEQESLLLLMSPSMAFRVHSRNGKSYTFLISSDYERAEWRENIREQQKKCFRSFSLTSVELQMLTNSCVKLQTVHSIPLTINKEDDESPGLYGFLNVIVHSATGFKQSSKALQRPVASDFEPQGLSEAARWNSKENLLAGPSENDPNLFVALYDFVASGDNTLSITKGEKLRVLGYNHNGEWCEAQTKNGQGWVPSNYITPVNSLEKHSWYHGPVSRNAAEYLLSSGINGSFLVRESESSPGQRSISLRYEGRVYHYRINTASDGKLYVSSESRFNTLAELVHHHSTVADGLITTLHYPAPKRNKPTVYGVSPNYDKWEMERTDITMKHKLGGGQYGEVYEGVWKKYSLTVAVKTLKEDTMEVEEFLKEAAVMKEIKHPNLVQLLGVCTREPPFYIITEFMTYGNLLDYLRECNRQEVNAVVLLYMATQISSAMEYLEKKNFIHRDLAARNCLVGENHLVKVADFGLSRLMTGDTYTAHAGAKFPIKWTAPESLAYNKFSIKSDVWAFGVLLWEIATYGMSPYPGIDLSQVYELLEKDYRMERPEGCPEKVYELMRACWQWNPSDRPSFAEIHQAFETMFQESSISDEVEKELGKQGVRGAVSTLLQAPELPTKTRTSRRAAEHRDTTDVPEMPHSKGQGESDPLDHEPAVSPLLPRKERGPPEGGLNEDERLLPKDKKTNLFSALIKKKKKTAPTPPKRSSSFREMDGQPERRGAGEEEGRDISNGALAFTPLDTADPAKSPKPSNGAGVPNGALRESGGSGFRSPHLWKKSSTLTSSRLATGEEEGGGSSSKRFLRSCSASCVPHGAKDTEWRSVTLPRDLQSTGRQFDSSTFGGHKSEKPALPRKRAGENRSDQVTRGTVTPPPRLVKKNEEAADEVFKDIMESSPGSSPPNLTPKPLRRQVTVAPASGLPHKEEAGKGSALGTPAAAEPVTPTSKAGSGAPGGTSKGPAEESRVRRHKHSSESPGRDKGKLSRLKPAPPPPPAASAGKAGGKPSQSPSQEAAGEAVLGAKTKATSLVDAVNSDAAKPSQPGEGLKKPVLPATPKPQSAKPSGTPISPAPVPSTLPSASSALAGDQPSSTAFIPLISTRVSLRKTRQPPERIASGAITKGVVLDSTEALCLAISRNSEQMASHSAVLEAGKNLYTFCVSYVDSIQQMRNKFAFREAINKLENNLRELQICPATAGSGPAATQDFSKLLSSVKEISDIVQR
T8 sequence (Q06187 whole entry): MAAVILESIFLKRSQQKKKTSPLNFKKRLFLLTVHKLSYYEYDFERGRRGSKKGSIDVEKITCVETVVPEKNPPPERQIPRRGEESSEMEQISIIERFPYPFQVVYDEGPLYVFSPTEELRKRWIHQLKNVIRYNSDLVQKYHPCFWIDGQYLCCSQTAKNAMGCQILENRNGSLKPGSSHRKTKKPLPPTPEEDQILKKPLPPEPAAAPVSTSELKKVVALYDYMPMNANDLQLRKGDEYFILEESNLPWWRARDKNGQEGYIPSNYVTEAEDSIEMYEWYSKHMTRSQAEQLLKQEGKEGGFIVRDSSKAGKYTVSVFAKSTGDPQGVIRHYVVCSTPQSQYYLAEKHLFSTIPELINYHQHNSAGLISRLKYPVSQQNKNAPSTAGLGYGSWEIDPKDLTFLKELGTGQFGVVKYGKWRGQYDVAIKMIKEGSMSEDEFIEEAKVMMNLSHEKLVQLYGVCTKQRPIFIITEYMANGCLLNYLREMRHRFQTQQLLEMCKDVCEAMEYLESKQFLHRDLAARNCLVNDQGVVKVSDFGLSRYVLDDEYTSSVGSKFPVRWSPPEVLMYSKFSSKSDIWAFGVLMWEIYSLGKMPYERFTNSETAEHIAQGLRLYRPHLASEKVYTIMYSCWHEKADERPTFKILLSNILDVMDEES
T3 sequence (P00519 whole entry): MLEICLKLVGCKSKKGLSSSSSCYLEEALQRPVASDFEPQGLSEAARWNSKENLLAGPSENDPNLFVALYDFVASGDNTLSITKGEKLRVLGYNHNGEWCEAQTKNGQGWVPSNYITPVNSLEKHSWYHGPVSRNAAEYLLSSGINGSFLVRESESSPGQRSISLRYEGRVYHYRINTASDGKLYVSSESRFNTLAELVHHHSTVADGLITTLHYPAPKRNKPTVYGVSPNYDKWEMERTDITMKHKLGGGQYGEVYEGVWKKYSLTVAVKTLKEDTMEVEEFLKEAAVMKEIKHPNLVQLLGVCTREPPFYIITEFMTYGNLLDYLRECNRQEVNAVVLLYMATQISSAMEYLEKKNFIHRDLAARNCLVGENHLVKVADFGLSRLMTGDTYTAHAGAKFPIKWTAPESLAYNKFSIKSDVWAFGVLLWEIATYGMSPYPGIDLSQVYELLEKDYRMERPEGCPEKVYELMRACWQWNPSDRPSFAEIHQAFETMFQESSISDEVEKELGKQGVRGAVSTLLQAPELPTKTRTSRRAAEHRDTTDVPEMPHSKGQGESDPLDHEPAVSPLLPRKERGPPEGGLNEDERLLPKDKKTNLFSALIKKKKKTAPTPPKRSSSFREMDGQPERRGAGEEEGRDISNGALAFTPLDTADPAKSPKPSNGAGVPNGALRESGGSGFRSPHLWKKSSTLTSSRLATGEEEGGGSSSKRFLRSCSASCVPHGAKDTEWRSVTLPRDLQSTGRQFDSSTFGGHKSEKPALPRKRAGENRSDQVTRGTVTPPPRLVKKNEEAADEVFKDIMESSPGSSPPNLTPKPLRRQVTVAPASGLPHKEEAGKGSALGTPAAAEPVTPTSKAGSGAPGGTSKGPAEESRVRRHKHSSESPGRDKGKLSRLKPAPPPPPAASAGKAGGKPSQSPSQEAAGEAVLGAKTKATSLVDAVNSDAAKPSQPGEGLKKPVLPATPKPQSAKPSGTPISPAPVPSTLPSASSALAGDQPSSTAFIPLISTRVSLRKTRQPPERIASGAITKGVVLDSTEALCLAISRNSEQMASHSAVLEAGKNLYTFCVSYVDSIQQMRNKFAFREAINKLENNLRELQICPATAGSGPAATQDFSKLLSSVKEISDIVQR

With `COc1ccc(C(=O)/C=C/C(=O)N2CCN(c3cc(Nc4ncc(C(=O)Nc5c(C)cccc5Cl)s4)nc(C)n3)CC2)cc1` [Compound 126], the “binding to RNF126 (gel-based ABPP), in words” value (“binding to RNF126” for short) in assay [1] is on record as “potent binding”. Further, the “degradation of BCR-ABL, in words” value in assay [2] was “degradation of both BCR-ABL and c-ABL kinase in a dose-responsive manner”. The “degradation of c-ABL kinase, in words” value in assay [3] is “degradation of both BCR-ABL and c-ABL kinase in a dose-responsive manner”.

Turning to `CCCc1nn(C)c2c(=O)[nH]c(-c3cc(S(=O)(=O)N4CCN(C(=O)/C=C/C(=O)c5ccc(OC)cc5)CC4)ccc3OCC)nc12` [Compound 127], the “binding to RNF126” value in assay [1] is given as “potent binding”. Moreover, the “degradation of PDE5, in words” value in assay [4] is “degradation of PDE5 in HEK293T cells in a dose-responsive and proteasome-dependent manner”.

Regarding `CNc1nc(Nc2ccc(C(=O)N3CCN(C(=O)/C=C/C(=O)c4ccc(OC)cc4)CC3)cc2OC)ncc1Cl` [Compound 129], the “binding to RNF126” value in [1] is reported as “potent binding”. Further, in assay [5], the “loss of LRRK2, in words” value is on record as “loss of LRRK2 in A549 lung cancer cells in a dose-responsive manner”.

`COc1ccc(C(=O)/C=C/C(=O)N2CCN(C(=O)C[C@@H]3N=C(c4ccc(Cl)cc4)c4c(sc(C)c4C)-n4c(C)nnc43)CC2)cc1` [Compound 130, (S,E)-1-(4-(2-(4-(4-chlorophenyl)-2,3,9-trimethyl-6H-thieno[3,2-f][1,2,4]triazolo[4,3-a][1,4]diazepin-6-yl)acetyl)piperazin-1-yl)-4-(4-methoxyphenyl)but-2-ene-1,4-dione]: the “degradation of BRD4 long isoform, in words” value in assay [6] was “degradation of both the long and short isoforms of BRD4 in HEK293T cells in a dose-responsive, time-dependent, and proteasome-dependent manner”. Further, in [7], the “degradation of BRD4 short isoform, in words” value is “degradation of both the long and short isoforms of BRD4 in HEK293T cells in a dose-responsive, time-dependent, and proteasome-dependent manner”. The “binding to RNF126” value in assay [1] is recorded as “potent binding”. Besides, in assay [8], the “selectivity of degradation by quantitative proteomic profiling” value was “relatively selective degradation of BRD4”.

`COc1ccc(C(=O)/C=C/C(=O)N2CCC[C@@H](n3nc(-c4ccc(Oc5ccccc5)cc4)c4c(N)ncnc43)C2)cc1` [Compound 131]: in assay [1], the “binding to RNF126” value was “potent binding”. In addition, the “degradation of BTK, in words” value in [9] is on record as “degradation of BTK in MINO lymphoma cancer cells”.
